Structures can show the parent of a compound that is named as a salt.
Columns and labels:
[1] = target: T1, human recombinant 11β-HSD1 (Homo sapiens, UniProt P28845); assay: Measuring test for human 11β-HSD1 inhibitory activity (HTRF cortisol detection); assay type: biochemical; conditions: human recombinant 11β-HSD1, 200 nM cortisone, 40 μM NADPH, pH 6.6, room temperature 1 h
T1 construct: made in house
Experimental: (§1) Test Method 1: Measuring Test for Human 11β-HSD1 and 11β-HSD2 Inhibitory Activities
The procedure for measuring 11β-HSD1-inhibitory action was as follows. In this connection, the enzyme reaction and measurement were carried out using a 384-well plate. The enzyme was prepared in accordance with a document (Walker E. A. et al., Journal of Biological Chemistry, 2001, vol. 276, p. 21343-21350). The reaction was carried out by adding the compound to be tested with various concentrations to a reaction liquid consisting of 10 mM phosphate buffer (pH 6.6), 200 nM cortisone, 40 μM reduced nicotinamide adenine dinucleotide phosphate (NADPH) and human recombinant 11β-HSD1, and then incubating the same at room temperature for one hour (10 μl/well). The compound to be tested was prepared by dissolving in dimethyl sulfoxide (DMSO) to a DMSO concentration of 1% in the reaction liquid. After the enzyme reaction was completed, the enzyme inhibitory action was measured by detecting cortisol using a homogeneous time-resolved fluorescence method (HTRF). Each of the XL-665-labeled cortisol containing 400 μM carbenoxolone and cryptate-labeled cortisol antibody (CIS bio international Co., Ltd.) was added in 5 μl/well portions and incubated at room temperature for 2 hours, and then the fluorescence intensity was measured using a fluorophotometer (trade name: Discovery, Perkin Elmer Inc.), and the enzyme inhibitory action was calculated from the fluorescence intensity ratio at two wavelengths (665 nm/620 nm).
(§2) The measured result was calculated by averaging the values of 3 wells of the same condition. The ratio when DMSO was added instead of the compound to be tested was regarded as 0% and the ratio when 11β-HSD1 or 11β-HSD2 was not added was regarded as 100%, thereby calculating 50% inhibition concentration of the compound to be tested as IC50 of the compound inhibitory action.

[2] = target: T2, human recombinant 11β-HSD2 (Homo sapiens, UniProt P80365); assay: Measuring test for human 11β-HSD2 inhibitory activity (HTRF cortisol detection); assay type: biochemical; conditions: human recombinant 11β-HSD2, 200 nM cortisol, 200 μM NAD, pH 8.0, 37° C. 2 h
T2 sequence (P80365 1-405): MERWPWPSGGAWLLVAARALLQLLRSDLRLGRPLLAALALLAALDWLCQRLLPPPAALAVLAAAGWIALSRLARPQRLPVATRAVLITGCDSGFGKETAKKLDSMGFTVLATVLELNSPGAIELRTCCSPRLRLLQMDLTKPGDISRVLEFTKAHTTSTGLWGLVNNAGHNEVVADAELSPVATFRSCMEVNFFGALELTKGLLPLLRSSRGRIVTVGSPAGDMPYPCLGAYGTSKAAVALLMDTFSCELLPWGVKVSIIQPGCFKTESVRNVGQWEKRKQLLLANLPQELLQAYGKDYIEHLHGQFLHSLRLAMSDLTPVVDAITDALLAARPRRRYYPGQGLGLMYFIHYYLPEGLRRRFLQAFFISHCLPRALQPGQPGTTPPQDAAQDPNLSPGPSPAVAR
Experimental: as §1
Measurement of the 11β-HSD2 inhibitory activity was carried out in the same manner as in the 11β-HSD1 inhibitory activity measurement, except for the enzyme reaction conditions. The enzyme reaction was carried out by adding the compound to be tested with various concentrations to a reaction liquid consisting of 40 mM Tris-HCl buffer (pH 8.0), 200 nM cortisol, 200 μM nicotinamide adenine dinucleotide (NAD) and human recombinant 11β-HSD2, and then incubating the same at 37° C. for 2 hours (10 μl/well).
as §2

ob/ob mice = assay: Ob/ob mouse blood-glucose lowering test; assay type: in vivo; conditions: bid, oral, 14 days, male ob/ob mice, 12 hours after final administration
Experimental: Test Method 2: Ob/Ob Mouse Blood-Glucose Lowering Test
A compound liquid was prepared using 6% 2-hydroxypropyl-β-cyclodextrin as a solvent. Using 7 weeks-old male ob/ob mice (blood-glucose level of 300 mg/dL or more), blood-glucose levels were measured under non-fasting conditions and then the mice were divided into groups so that the blood-glucose levels became uniform among the groups. The compound to be tested was orally administered twice per day repeatedly for 14 days (3 or 10 mg/kg, bid) and a basal blood-glucose level was measured 12 hours after final administration (n=6 to 10). Similarly, the compound to be tested was orally administered twice per day repeatedly for […] (3 or 10 mg/kg, bid) and a blood glucose at fasting was measured under fasting conditions 12 hours after final administration. The blood-glucose level was measured by carrying out colorimetric determination of the amount of glucose (mg/dl) in heparin blood plasma obtained by collecting blood in a heparin-coated glass capillary and subsequently centrifuging the same.

male ddY mice = assay: Scopolamine-induced impairment of spontaneous alternation behavior test (Y-maze); assay type: in vivo, mouse; conditions: oral, scopolamine 0.5 mg/kg i.p., Y-maze 8 minutes
Experimental: Test Method 5: Scopolamine-Induced Impairment of Spontaneous Alternation Behavior Test
The compound to be tested was orally administered to male ddY mice of 5 to 7 weeks of age and scopolamine was intraperitoneally administered at 0.5 mg/kg after 10 minutes. After more 20 minutes, the animals were put in a Y-maze having arms of equivalent lengths into three directions and were allowed to freely search for 8 minutes. In this time, spontaneous alternation behavior to the arm (consecutive approach three times to different arms) was counted and a spontaneous alternation rate (spontaneous alternation behavior÷(approach number−2)×100) was calculated to evaluate pharmaceutical efficacy.

[3] = system: CYP3A (human CYP3A gene promoter, via PXR); assay: Human CYP3A enzyme inducibility test (PXR/CYP3A promoter luciferase reporter in HepG2); assay type: cell-based; conditions: HepG2 cells, 16 hours after addition of the drug
Experimental: Test Method 6: Human CYP3A Enzyme Inducibility Test
3E+6 (n) Human hepatoma-derived cell lines, HepG2, were seeded on a 10 cm collagen-coated dish. Human PXR expression vectors, luciferase reporter vector in which a human CYP3A gene promoter region is inserted, and renilla expression vector as a control were transiently introduced 6 hours after cell seeding. The entire cells were further seeded on 384-well plates 16 hours after introduction, and a drug dissolved in DMSO was added thereto 6 hours after seeding. Luciferase activity of the reporter gene and control gene were measured 16 hours after addition of the drug, a value corrected by a control was regarded as an active value, and the value obtained by dividing by an activity value in which no drug was added was calculated as a fold induction.

T1 sequence (P28845 whole entry): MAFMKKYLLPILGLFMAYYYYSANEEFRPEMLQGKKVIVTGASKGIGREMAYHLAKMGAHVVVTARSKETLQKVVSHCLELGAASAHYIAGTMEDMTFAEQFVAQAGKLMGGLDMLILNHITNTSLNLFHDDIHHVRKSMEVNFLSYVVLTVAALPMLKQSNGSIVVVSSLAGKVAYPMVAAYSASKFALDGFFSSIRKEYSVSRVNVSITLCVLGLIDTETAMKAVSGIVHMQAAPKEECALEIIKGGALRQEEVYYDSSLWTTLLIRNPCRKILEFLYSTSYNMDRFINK

SMILES | IC50 [1] [µM] | IC50 [2] [µM] | fold induction at 16 h, 3 µM [3] | Basal blood-glucose lowering activity (%) (ob/ob mice; 10 mg/kg) | Minimal effective dose for spontaneous alternation rate (male ddY mice) [mg/kg] | Basal blood-glucose lowering activity (%) (ob/ob mice; 3 mg/kg)
Cn1c(-c2ccncc2C(F)(F)F)nnc1C(C)(C)Oc1c(F)cc(Cl)cc1F [Example 544] | 0.015 | > 10 |  |  |  | 
Cn1cc(-c2nnc(C(C)(C)Oc3c(F)cc(F)cc3F)n2C2CC2)c(Cl)n1 [Example 545] | 0.073 | > 10 |  |  |  | 
CCn1c(-c2ccc(C(N)=O)cc2)nnc1C(C)(C)Oc1c(F)cc(Cl)cc1F [Example 509] | 0.021 | > 10 |  |  | 0.01 | 
CC(C)(Oc1cc(F)c(F)cc1F)c1nnc(-c2ccc(C(N)=O)cc2F)n1C1CC1 [Example 525] | 0.029 | > 10 |  |  |  | 
CC(C)(Oc1ccc(F)cc1F)c1nnc(-c2ccc(C(N)=O)cc2F)n1C1CC1 [Example 355] | 0.027 | > 10 |  |  |  | 
CC(C)n1c(-c2ccc(C(N)=O)cc2)nnc1C(C)(C)Oc1c(F)cc(Cl)cc1F [Example 535] | 0.054 | > 10 |  |  | 0.01 | 
Cn1c(-c2ccccc2C(F)(F)F)nnc1C(C)(C)Oc1ccc(C(F)(F)F)cc1Cl [Example 204] | 0.12 | > 10 |  | 29% (10 mg/kg) |  | 
Cn1c(-c2ccc(F)c3ccccc23)nnc1C(C)(C)Oc1c(F)cc(F)cc1F [Example 373] | 0.1 | > 100 |  |  |  | 
CCn1c(-c2ccc3cn[nH]c3c2)nnc1C(C)(C)Oc1c(F)cc(Cl)cc1F [Example 83, 6-{5-[1-(4-chloro-2,6-difluorophenoxy)-1-methylethyl]-4-ethyl-4H-1,2,4-triazol-3-yl}-1H-indazole] | 0.023 | > 10 |  |  |  | 
Cn1c(-c2sc(N)nc2C(F)(F)F)nnc1C(C)(C)Oc1c(F)cc(Cl)cc1F [Example 587] | 0.013 | > 3 |  |  |  | 
CC(C)n1c(-c2ccc(C(N)=O)cc2)nnc1C(C)(C)Oc1c(F)cc(F)cc1F [Example 531] | 0.05 | > 10 |  |  |  | 
CC(C)n1c(-c2ccc(C(N)=O)cc2)nnc1C(C)(C)Oc1c(F)cccc1F [Example 616] | 0.02 | > 10 |  |  |  | 
Cn1c(-c2cc(Cl)ccc2Cl)nnc1C(C)(C)Oc1c(F)cc(F)cc1F [Example 374] | 0.05 | > 30 |  |  |  | 

Second part, led by results:

IC50 [1] [µM] | IC50 [2] [µM] | fold induction at 16 h, 3 µM [3] | SMILES | Basal blood-glucose lowering activity (%) (ob/ob mice; 10 mg/kg) | Minimal effective dose for spontaneous alternation rate (male ddY mice) [mg/kg] | Basal blood-glucose lowering activity (%) (ob/ob mice; 3 mg/kg)
0.01 | > 3 |  | CC(C)(Oc1c(F)cc(Cl)cc1F)c1nnc(-c2cc3c(cc2F)C(=O)NC3)n1C1CC1 [Example 580] |  |  | 
0.0055 | > 3 |  | Cn1c(-c2ccccc2C(F)(F)F)nnc1C(C)(C)Oc1ccc(Cl)cc1-c1nnco1 [Example 69, 2-[5-chloro-2-(1-methyl-1-{4-methyl-5-[2-(trifluoromethyl)phenyl]-4H-1,2,4-triazol-3-yl}ethoxy)phenyl]-1,3,4-oxadiazole] | 32% (10 mg/kg) |  | 
0.012 | > 10 |  | Cn1c(-c2ccc(F)cc2Br)nnc1C(C)(C)Oc1ccc(Cl)cc1 [Example 215] |  | 0.01 | 
0.008 | > 3 |  | CCn1c(-c2ccc3c(c2)CNC3=O)nnc1C(C)(C)Oc1c(F)cc(F)cc1F [Example 518] |  |  | 
0.0053 | > 3 |  | Cn1c(-c2ccc(F)cc2Cl)nnc1C(C)(C)Oc1c(F)cc(F)cc1F [Example 65, 3-(2-chloro-4-fluorophenyl)-4-methyl-5-[1-methyl-1-(2,4,6-trifluorophenoxy)ethyl]-4H-1,2,4-triazole monohydrochloride] |  | 0.01 | 
0.003 | > 3 | 1.24 | Cn1c(-c2ccc(C(N)=O)cc2Cl)nnc1C(C)(C)Oc1c(F)cc(F)cc1F [Example 175] |  |  | 20% (3 mg/kg)
0.0029 | > 3 |  | Cn1c(-c2ccc(C(N)=O)cc2Cl)nnc1C(C)(C)Oc1c(F)cc(Cl)cc1F [Example 185] |  |  | 
0.013 | > 10 |  | CCn1c(N2CCc3[nH]ncc3C2)nnc1C(C)(C)Oc1c(F)cc(F)cc1F [Example 87, 5-{4-ethyl-5-[1-methyl-1-(2,4,6-trifluorophenoxy)ethyl]-4H-1,2,4-triazol-3-yl}-4,5,6,7-tetrahydro-1H-pyrazolo[4,3-c]pyridine dihydrochloride] |  |  | 
0.003 | > 3 |  | Cn1c(-c2ccccc2C(F)(F)F)nnc1C(C)(C)Oc1ccc(Cl)cc1 [Example 64, 3-[1-(4-chlorophenoxy)-1-methylethyl]-4-methyl-5-[2-(trifluoromethyl)phenyl]-4H-1,2,4-triazole monohydrochloride] |  | 0.001 | 
0.0033 | > 3 |  | Cn1c(-c2ccc(C(N)=O)cc2F)nnc1C(C)(C)Oc1c(F)cc(Cl)cc1F [Example 186] |  | 0.03 | 23% (3 mg/kg)
0.0046 | > 3 |  | Cn1c(-c2ccccc2C(F)(F)F)nnc1C(C)(C)Oc1ccc(Br)cn1 [Example 148] |  | 0.03 | 
0.0087 | > 3 |  | C[C@H](Oc1ccc(C(N)=O)cc1Br)c1nnc(-c2ccccc2C(F)(F)F)n1C [Example 127] |  |  | 
